Patent publication US20090155387A1, “STABLE PHARMACEUTICAL COMPOSITION COMPRISING BETA-LACTAM ANTIBIOTIC AND ION-CHELATING AGENT” (priority 2006, published 2009)
One block for each compound: values may come before it.

Experiment: Amounts of β-lactam antibiotic, β-lactamase inhibitor and aminoglycoside antibiotic in solution over time (reverse-phase LC/HPLC)
Assay type: physicochemical
Method: The amounts of β-lactam antibiotics and β-lactamase inhibitor were determined using C18 reverse-phase LC and UV-VIS detector (Tianjin […] Co., Ltd., analysis method No. HM-K-03). The content of aminoglycoside antibiotics was measured using reverse-phase HPLC and evaporation-light-scattering detector (ELSD detector) (Tianjin […] Co., Ltd., analysis method No. HM-K-08). The amount of antibiotic component at each time point was expressed as a percentage with respect to the amount at the initial time. The relative amount of each antibiotic component in the composition at each time point was expressed as peak area ratio with respect to the corresponding peak area of an external standard.

[1] = in Example 6 solution, pH 6.5, room temperature, 0 h
[2] = in Example 6 solution, pH 6.5, room temperature, 1 h
[3] = in Example 6 solution, pH 6.5, room temperature, 2 h
[4] = in Example 6 solution, pH 6.5, room temperature, 4 h
[5] = in Example 6 solution, pH 6.5, room temperature, 6 h
[6] = in Example 6 solution, pH 6.5, room temperature, 8 h
[7] = in Example 13 solution (Example 12 solution + etimicin sulfate), 0 h
[8] = in Example 13 solution (Example 12 solution + etimicin sulfate), 1 h
[9] = in Example 13 solution (Example 12 solution + etimicin sulfate), 2 h
[10] = in Example 13 solution (Example 12 solution + etimicin sulfate), 4 h
[11] = in Example 13 solution (Example 12 solution + etimicin sulfate), 6 h
[12] = in Example 13 solution (Example 12 solution + etimicin sulfate), 8 h

amount (percentage of initial amount) [1]: 108.9% | amount (percentage of initial amount) [2]: 100.2% | amount (percentage of initial amount) [3]: 100.5% | amount (percentage of initial amount) [4]: 100.4% | amount (percentage of initial amount) [5]: 100.4% | amount (percentage of initial amount) [6]: 97.50% | amount (percentage of initial amount) [7]: 100% | amount (percentage of initial amount) [8]: 98.8% | amount (percentage of initial amount) [9]: 97.5% | amount (percentage of initial amount) [10]: 98.4% | amount (percentage of initial amount) [11]: 95.6% | amount (percentage of initial amount) [12]: 92.8% | amount (percentage of initial amount) (in Example 17 solution, pH 6.5, room temperature, 0 h): 100.1% | amount (percentage of initial amount) (in Example 17 solution, pH 6.5, room temperature, 1 h): 100.4% | amount (percentage of initial amount) (in Example 17 solution, pH 6.5, room temperature, 2 h): 99.31% | amount (percentage of initial amount) (in Example 17 solution, pH 6.5, room temperature, 4 h): 99.56% | amount (percentage of initial amount) (in Example 17 solution, pH 6.5, room temperature, 6 h): 99.61% | amount (percentage of initial amount) (in Example 17 solution, pH 6.5, room temperature, 8 h): 99.25% | amount (percentage of initial amount) (in Example 18 solution (2.5% fructose), pH 6.5, room temperature, 0 h): 100.1% | amount (percentage of initial amount) (in Example 18 solution (2.5% fructose), pH 6.5, room temperature, 1 h): 100.6% | amount (percentage of initial amount) (in Example 18 solution (2.5% fructose), pH 6.5, room temperature, 2 h): 99.79% | amount (percentage of initial amount) (in Example 23 solution (2.5% fructose), pH 6.75, room temperature, 0 h): 104.5% | amount (percentage of initial amount) (in Example 23 solution (2.5% fructose), pH 6.75, room temperature, 1 h): 99.13% | amount (percentage of initial amount) (in Example 23 solution (2.5% fructose), pH 6.75, room temperature, 2 h): 103.3% | amount (percentage of initial amount) (in Example 23 solution (2.5% fructose), pH 6.75, room temperature, 4 h): 98.75% | amount (percentage of initial amount) (in Example 23 solution (2.5% fructose), pH 6.75, room temperature, 6 h): 101.6% | amount (percentage of initial amount) (in Example 23 solution (2.5% fructose), pH 6.75, room temperature, 8 h): 96.42% | amount (percentage of initial amount) (in Example 26 solution (2.5% fructose), pH 6.75, room temperature, 0 h): 94.69% | amount (percentage of initial amount) (in Example 26 solution (2.5% fructose), pH 6.75, room temperature, 1 h): 102.9% | amount (percentage of initial amount) (in Example 26 solution (2.5% fructose), pH 6.75, room temperature, 2 h): 109.3% | amount (percentage of initial amount) (in Example 26 solution (2.5% fructose), pH 6.75, room temperature, 4 h): 108.8% | amount (percentage of initial amount) (in Example 26 solution (2.5% fructose), pH 6.75, room temperature, 6 h): 109.6% | amount (percentage of initial amount) (in Example 26 solution (2.5% fructose), pH 6.75, room temperature, 8 h): 105.2%
SMILES: CCN[C@@H]1C[C@H](N)[C@@H](O[C@H]2O[C@H](CN)CC[C@H]2N)[C@H](O)[C@H]1O[C@H]1OC[C@](C)(O)[C@H](NC)[C@H]1O [Etimicin]

amount (percentage of initial amount) (in Example 4 solution (no EDTA), pH 6.75, room temperature, 0 h): 101.4% | amount (percentage of initial amount) (in Example 4 solution (no EDTA), pH 6.75, room temperature, 1 h): 98.66% | amount (percentage of initial amount) (in Example 4 solution (no EDTA), pH 6.75, room temperature, 2 h): 98.79% | amount (percentage of initial amount) (in Example 4 solution (no EDTA), pH 6.75, room temperature, 4 h): 101.5% | amount (percentage of initial amount) (in Example 4 solution (no EDTA), pH 6.75, room temperature, 6 h): 107.4% | amount (percentage of initial amount) (in Example 5 solution, pH 6.75, room temperature, 0 h): 101.4% | amount (percentage of initial amount) (in Example 5 solution, pH 6.75, room temperature, 1 h): 98.66% | amount (percentage of initial amount) (in Example 5 solution, pH 6.75, room temperature, 2 h): 98.79% | amount (percentage of initial amount) (in Example 5 solution, pH 6.75, room temperature, 4 h): 101.5% | amount (percentage of initial amount) (in Example 5 solution, pH 6.75, room temperature, 6 h): 107.4% | amount (percentage of initial amount) [1]: 110.4% | amount (percentage of initial amount) [2]: 99.48% | amount (percentage of initial amount) [3]: 101.3% | amount (percentage of initial amount) [4]: 98.66% | amount (percentage of initial amount) [5]: 98.02% | amount (percentage of initial amount) [6]: 99.30% | amount (percentage of initial amount) (in Example 12 solution (no aminoglycoside) from freeze-dried powder stored 7 days at 0° C., redissolved, 0 h): 100.2% | amount (percentage of initial amount) (in Example 12 solution (no aminoglycoside) from freeze-dried powder stored 7 days at 0° C., redissolved, 1 h): 99.0% | amount (percentage of initial amount) (in Example 12 solution (no aminoglycoside) from freeze-dried powder stored 7 days at 0° C., redissolved, 2 h): 99.0% | amount (percentage of initial amount) (in Example 12 solution (no aminoglycoside) from freeze-dried powder stored 7 days at 0° C., redissolved, 4 h): 96.2% | amount (percentage of initial amount) (in Example 12 solution (no aminoglycoside) from freeze-dried powder stored 7 days at 0° C., redissolved, 6 h): 94.5% | amount (percentage of initial amount) (in Example 12 solution (no aminoglycoside) from freeze-dried powder stored 7 days at 0° C., redissolved, 8 h): 95.3% | amount (percentage of initial amount) [7]: 100.2% | amount (percentage of initial amount) [8]: 99.0% | amount (percentage of initial amount) [9]: 99.0% | amount (percentage of initial amount) [10]: 96.2% | amount (percentage of initial amount) [11]: 94.5% | amount (percentage of initial amount) [12]: 95.3% | amount (percentage of initial amount) (in Example 14 solution, pH 6.5, room temperature, 0 h): 98.42% | amount (percentage of initial amount) (in Example 14 solution, pH 6.5, room temperature, 1 h): 97.39% | amount (percentage of initial amount) (in Example 14 solution, pH 6.5, room temperature, 2 h): 97.46% | amount (percentage of initial amount) (in Example 14 solution, pH 6.5, room temperature, 4 h): 94.70% | amount (percentage of initial amount) (in Example 14 solution, pH 6.5, room temperature, 6 h): 93.02% | amount (percentage of initial amount) (in Example 15 solution, pH 6.5, room temperature, 0 h): 101.7% | amount (percentage of initial amount) (in Example 15 solution, pH 6.5, room temperature, 1 h): 96.06% | amount (percentage of initial amount) (in Example 15 solution, pH 6.5, room temperature, 2 h): 95.72% | amount (percentage of initial amount) (in Example 15 solution, pH 6.5, room temperature, 4 h): 97.32% | amount (percentage of initial amount) (in Example 15 solution, pH 6.5, room temperature, 6 h): 69.95% | amount (percentage of initial amount) (in Example 16 solution, pH 6.5, room temperature, 0 h): 102.9% | amount (percentage of initial amount) (in Example 16 solution, pH 6.5, room temperature, 1 h): 108.6% | amount (percentage of initial amount) (in Example 16 solution, pH 6.5, room temperature, 2 h): 104.6% | amount (percentage of initial amount) (in Example 16 solution, pH 6.5, room temperature, 4 h): 99.50% | amount (percentage of initial amount) (in Example 16 solution, pH 6.5, room temperature, 6 h): 98.91% | amount (percentage of initial amount) (in Example 16 solution, pH 6.5, room temperature, 8 h): 103.4% | amount (percentage of initial amount) (in Example 19 solution, pH 6.75, room temperature, 0 h): 95.91% | amount (percentage of initial amount) (in Example 19 solution, pH 6.75, room temperature, 1 h): 97.01% | amount (percentage of initial amount) (in Example 19 solution, pH 6.75, room temperature, 2 h): 95.94% | amount (percentage of initial amount) (in Example 19 solution, pH 6.75, room temperature, 4 h): 95.86% | amount (percentage of initial amount) (in Example 19 solution, pH 6.75, room temperature, 6 h): 95.41% | amount (percentage of initial amount) (in Example 19 solution, pH 6.75, room temperature, 8 h): 95.22% | amount (percentage of initial amount) (in Example 20 solution (no EDTA), pH 6.75, room temperature, 0 h): 92.30% | amount (percentage of initial amount) (in Example 20 solution (no EDTA), pH 6.75, room temperature, 1 h): 94.80% | amount (percentage of initial amount) (in Example 20 solution (no EDTA), pH 6.75, room temperature, 2 h): 94.06% | amount (percentage of initial amount) (in Example 20 solution (no EDTA), pH 6.75, room temperature, 4 h): 94.12% | amount (percentage of initial amount) (in Example 20 solution (no EDTA), pH 6.75, room temperature, 6 h): 93.15% | amount (percentage of initial amount) (in Example 20 solution (no EDTA), pH 6.75, room temperature, 8 h): 94.50% | amount (percentage of initial amount) (in Example 21 solution, pH 6.75, room temperature (22° C.), 0 h): 92.44% | amount (percentage of initial amount) (in Example 21 solution, pH 6.75, room temperature (22° C.), 1 h): 104.6% | amount (percentage of initial amount) (in Example 21 solution, pH 6.75, room temperature (22° C.), 2 h): 102.4% | amount (percentage of initial amount) (in Example 21 solution, pH 6.75, room temperature (22° C.), 4 h): 97.95% | amount (percentage of initial amount) (in Example 21 solution, pH 6.75, room temperature (22° C.), 6 h): 98.90% | amount (percentage of initial amount) (in Example 21 solution, pH 6.75, room temperature (22° C.), 8 h): 102.9%
SMILES: CCN1CCN(C(=O)N[C@@H](C(=O)N[C@@H]2C(=O)N3C(C(=O)O)=C(CSc4nnnn4C)CS[C@H]23)c2ccc(O)cc2)C(=O)C1=O [Cefoperazone sodium]
